Reference: patent US6410054B1, “Immediate release eplerenone compositions” (G. D. Searle & Co., priority 1998, dated 2002)

How the values were obtained:
[1] = ADME study of [14C]eplerenone oral solution: plasma, whole blood, saliva pharmacokinetics; format: in vivo, humans; settings: for Total Radioactivity AUC0-inf (± SEM) / Total Radioactivity Cmax (± SEM): 100 mg [14C]eplerenone oral solution
Description: An open-label, single dose study was employed to evaluate the absorption, distribution, metabolism and elimination profile of a single 100 mg dose of an oral solution of eplerenone.
The study employed eight healthy male humans. Each subject received a single 100 mg oral dose of a solution of [^14C]eplerenone (specific activity 0.75 μCi/mg). Plasma, saliva, breath, urine and fecal samples were collected at predetermined intervals and analyzed for sample radioactivity and the concentration of eplerenone and its open lactone ring form. Safety was determined on the basis of laboratory tests, vital signs, and the occurrence and types of adverse events.
The subjects, who underwent an overnight food fast prior to administration of the dose, received at 0800 hours a single 100 mg oral dose of an aqueous oral solution of radiolabeled eplerenone reconstituted in 80 mL of an apple juice/hydroxypropyl-β-cyclodextrin mixture. The subjects swallowed about 200 mL of water one, two and three hours post dosing.
Blood samples were collected at −0.5 (predose), 0.5, 1, 1.5, 2, 2.5, 3, 4, 6, 8, 12, 16, 24, 36, 48, 72 and 96 hours post dose. […] Individual fecal samples were collected beginning immediately after dosing and continuing through 0800 hours on day 8. In addition, one predose fecal sample was provided. Saliva samples were taken at 0.5 hour predose and at 0.5, 1, 2, 4, 6, 12, and 24 hours postdose. Breath samples were taken at 0.5 hour predose and at 1, 2, 3, 4, 6, 8, 12, 24, 36, 48 and 72 hours postdose.

[2] = Single dose study: plasma pharmacokinetics of eplerenone, open lactone ring form, spironolactone; settings: for Plasma Concentration Of Eplerenone: -0.25 h (predose); for Oral Clearance: eplerenone in plasma
Description: The pharmacokinetics, safety and antialdosterone activity of single 10, 50, 100, 300 and 1000 mg oral doses of eplerenone were evaluated in a single-center, randomized, double-blind, placebo-controlled study.
The study employed seven parallel dose groups of eight healthy male humans.
The eplerenone capsules administered corresponded to the capsules (or combinations of the capsules) disclosed in Examples 4, 5, 7 and 8 above. The placebo was a conventional capsule containing lactose. […] The fludrocortisone used in the study consisted of commercially available fludrocortisone tablets (Florinef®, Squibb BV).
The subjects, who underwent a ten hour food fast prior to administration of the dose, received a single oral dose of one of the study medications together with about 180 mL of water at 0800 hours. […] Each dose of fludrocortisone was administered with 150 mL of water except for the 1.0 mg dose which was administered with 200 mL of water.
The plasma samples collected from subjects dosed with eplerenone were assayed for concentrations of eplerenone and the open lactone ring form of eplerenone. […] A subset of plasma samples was also assayed for testosterone levels. The urine collected was analyzed to determine concentrations and amounts of eplerenone and the open lactone ring form of eplerenone, the amount of sodium and potassium excreted, and the urinary log10 (sodium/potassium) ratio.

[3] = male, human, plasma, 100 mg eplerenone oral solution, single dose

In the case of `COC(=O)C1CC2=CC(=O)CCC2(C)C23OC2CC2(C)C(CC[C@@]24CCC(=O)O4)C13` (stereo partly drawn) [eplerenone, methyl hydrogen 9,11α-epoxy-17α-hydroxy-3-oxopregn-4-ene-7α,21-dicarboxylate, γ-lactone], the “concentration of total radioactivity” value ([1]; 1.5 hour plasma samples, mean) is reported as 2390 ng/mL, the “Total Radioactivity AUC0-inf (± SEM)” value ([1]; Plasma) is reported as 18400 ± 1200 ng equivalents hr/mL and the “Total Radioactivity Cmax (± SEM)” value ([1]; Plasma) is reported as 2490 ± 110 ng equivalents/mL. For the same compound, the “Total Radioactivity AUC0-inf (± SEM)” value ([1]; Saliva) was 7960 ± 500 ng equivalents hr/mL, the “Total Radioactivity Cmax (± SEM)” value ([1]; Saliva) was 2170 ± 280 ng equivalents/mL and the “Total Radioactivity AUC0-inf (± SEM)” value ([1]; Whole Blood) was 12800 ± 800 ng equivalents hr/mL. For the same compound, the “Total Radioactivity Cmax (± SEM)” value ([1]; Whole Blood) was 1770 ± 80 ng equivalents/mL, the concentration at 0.5 h ([1]; male, human, plasma, 100 mg oral solution of [14C]eplerenone, 0.5 hours after dosing) was 1340 ng/mL and the concentration at 1 h ([1]; male, human, plasma, 100 mg oral solution of [14C]eplerenone, 1.0 hours after dosing) was 1620 ng/mL. For the same compound, the concentration at 1.5 h ([1]; male, human, plasma, 100 mg oral solution of [14C]eplerenone, 1.5 hours after dosing) was 1590 ng/mL, the concentration at 2 h ([1]; male, human, plasma, 100 mg oral solution of [14C]eplerenone, 2.0 hours after dosing) was 1420 ng/mL and the concentration at 2.5 h ([1]; male, human, plasma, 100 mg oral solution of [14C]eplerenone, 2.5 hours after dosing) was 1260 ng/mL. It also gave a concentration at 3 h ([1]; male, human, plasma, 100 mg oral solution of [14C]eplerenone, 3.0 hours after dosing) of 1180 ng/mL, a concentration at 4 h ([1]; male, human, plasma, 100 mg oral solution of [14C]eplerenone, 4.0 hours after dosing) of 1000 ng/mL and a concentration at 6 h ([1]; male, human, plasma, 100 mg oral solution of [14C]eplerenone, 6.0 hours after dosing) of 596 ng/mL. The concentration at 8 h ([1]; male, human, plasma, 100 mg oral solution of [14C]eplerenone, 8.0 hours after dosing) was 391 ng/mL, the concentration at 12 h ([1]; male, human, plasma, 100 mg oral solution of [14C]eplerenone, 12.0 hours after dosing) was 149 ng/mL and the concentration at 16 h ([1]; male, human, plasma, 100 mg oral solution of [14C]eplerenone, 16.0 hours after dosing) was 68 ng/mL. The concentration at 24 h ([1]; male, human, plasma, 100 mg oral solution of [14C]eplerenone, 24.0 hours after dosing) was 17.3 ng/mL, the concentration at 36 h ([1]; male, human, plasma, 100 mg oral solution of [14C]eplerenone, 36.0 hours after dosing) was 0 ng/mL and the concentration at 48 h ([1]; male, human, plasma, 100 mg oral solution of [14C]eplerenone, 48.0 hours after dosing) was 0 ng/mL. It also gave a concentration at 72 h ([1]; male, human, plasma, 100 mg oral solution of [14C]eplerenone, 72.0 hours after dosing) of 0 ng/mL, a concentration at 96 h ([1]; male, human, plasma, 100 mg oral solution of [14C]eplerenone, 96.0 hours after dosing) of 0 ng/mL and a concentration at -0.5 h ([1]; male, human, plasma, 100 mg oral solution of [14C]eplerenone, −0.5 hours after dosing) of 0 ng/mL. For the same compound, the Cmax [1, 3] was 1720 ng/mL, the half-life [1, 3] was 3.8 h and the AUC(0-t) ([1]; male, human, plasma, 100 mg eplerenone oral solution, single dose, read-out: AUC(0-96)) was 9540 ng·h/mL. The MRT ([1]; male, human, plasma, 100 mg eplerenone oral solution, single dose, read-out: Mean Residence Time) was 4.8 h, the Tmax ([1]; male, human, plasma, 100 mg eplerenone oral solution, single dose, read-out: Tmax) was 1.3 h and the “Oral Clearance” value ([1]; plasma, 100 mg eplerenone oral solution, single dose) was 11.4 L/h. The “Plasma Concentration Of Eplerenone” value ([2]; 10 mg single oral dose) was 0 ng/mL, the “Plasma Concentration Of Eplerenone” value ([2]; 50 mg single oral dose) was 0 ng/mL and the “Plasma Concentration Of Eplerenone” value ([2]; 100 mg single oral dose) was 0 ng/mL. The “Plasma Concentration Of Eplerenone” value ([2]; 300 mg single oral dose) was 0 ng/mL, the “Plasma Concentration Of Eplerenone” value ([2]; 1000 mg single oral dose) was 0 ng/mL and the “Oral Clearance” value ([2]; 10 mg single oral dose) was 13.3 L/h. For the same compound, the “Oral Clearance” value ([2]; 50 mg single oral dose) was 13.7 L/h, the “Oral Clearance” value ([2]; 100 mg single oral dose) was 13.1 L/h and the “Oral Clearance” value ([2]; 300 mg single oral dose) was 17.6 L/h. For the same compound, the “Oral Clearance” value ([2]; 1000 mg single oral dose) was 18.4 L/h, the concentration at 12 h ([2]; male, human, in vivo, po, 50 mg) was 49.4 ng/mL and the AUC(0-t) ([2]; male, human, plasma, po, 10 mg) was 942 ng·h/mL. It also gave a Cmax ([2]; male, human, plasma, po, 10 mg) of 191 ng/mL, an MRT ([2]; male, human, plasma, po, 10 mg) of 3.9 h and a Tmax ([2]; male, human, plasma, po, 10 mg) of 1.3 h. It also gave a concentration at 0.5 h ([2]; male, human, plasma, po, 10 mg) of 130 ng/mL, a concentration at 1 h ([2]; male, human, plasma, po, 10 mg) of 177 ng/mL and a concentration at 2 h ([2]; male, human, plasma, po, 10 mg) of 159 ng/mL. It also gave a concentration at 3 h ([2]; male, human, plasma, po, 10 mg) of 125 ng/mL, a concentration at 4 h ([2]; male, human, plasma, po, 10 mg) of 106 ng/mL and a concentration at 6 h ([2]; male, human, plasma, po, 10 mg) of 65.3 ng/mL. For the same compound, the concentration at 8 h ([2]; male, human, plasma, po, 10 mg) was 34.4 ng/mL, the concentration at 12 h ([2]; male, human, plasma, po, 10 mg) was 6 ng/mL and the concentration at 16 h ([2]; male, human, plasma, po, 10 mg) was 6 ng/mL. It also gave a concentration at 24 h ([2]; male, human, plasma, po, 10 mg) of 1.7 ng/mL, a concentration at 28 h ([2]; male, human, plasma, po, 10 mg) of 0 ng/mL and a concentration at 32 h ([2]; male, human, plasma, po, 10 mg) of 0 ng/mL. It also gave a concentration at 48 h ([2]; male, human, plasma, po, 10 mg) of 0 ng/mL, a concentration at 72 h ([2]; male, human, plasma, po, 10 mg) of 0 ng/mL and a concentration at 96 h ([2]; male, human, plasma, po, 10 mg) of 0 ng/mL. It also gave a half-life ([2]; male, human, plasma, po, 10 mg) of 2.1 h, an AUC(0-t) ([2]; male, human, plasma, po, 50 mg) of 4020 ng·h/mL and a Cmax ([2]; male, human, plasma, po, 50 mg) of 797 ng/mL. For the same compound, the MRT ([2]; male, human, plasma, po, 50 mg) was 4.2 h, the Tmax ([2]; male, human, plasma, po, 50 mg) was 1.4 h and the concentration at 0.5 h ([2]; male, human, plasma, po, 50 mg) was 552 ng/mL. For the same compound, the concentration at 1 h ([2]; male, human, plasma, po, 50 mg) was 721 ng/mL, the concentration at 2 h ([2]; male, human, plasma, po, 50 mg) was 693 ng/mL and the concentration at 3 h ([2]; male, human, plasma, po, 50 mg) was 592 ng/mL. The concentration at 4 h ([2]; male, human, plasma, po, 50 mg) was 457 ng/mL, the concentration at 6 h ([2]; male, human, plasma, po, 50 mg) was 270 ng/mL and the concentration at 8 h ([2]; male, human, plasma, po, 50 mg) was 146 ng/mL. The concentration at 16 h ([2]; male, human, plasma, po, 50 mg) was 18.3 ng/mL and the concentration at 24 h ([2]; male, human, plasma, po, 50 mg) was 3 ng/mL.
